# Experimental data: PMC9179341, “Design of New Potent and Selective Thiophene-Based KV1.3 Inhibitors and Their Potential for Anticancer Activity” (Cancers, 2022)
# Entries after “also recorded” stand apart in the source; their conditions may differ.
# Experiments:
# KV1.5 = KV1.5 (Homo sapiens, UniProt P22460); test: Selectivity, HiClamp Xenopus laevis heterologous expression system, KV1.5; assay type: cell-based; settings: for IC50: HiClamp, oocytes, NA = no significant inhibition, no IC50 determined; for Effect on KV1.5 channel: at a concentration of the compound's IC50 value for KV1.3
# Experimental: (§1) Ion channels (Kv1.x, Kv2.1, Kv4.2, Kv10.1) were expressed in Xenopus laevis oocytes by linearization of the plasmids and subsequent in vitro transcription using a commercial T7 or SP6 mMESSAGE mMACHINE transcription kit (Ambion, Carlsbad, California, USA). Defolliculated Xenopus oocytes were then injected with 20–50 nL of the cRNA at a concentration of 1 ng/nL using a micro-injector (Drummond Scientific1, Broomall, PA, USA). The oocytes were incubated in a solution containing (in mM): NaCl, 96; KCl, 2; CaCl2, 1.8; MgCl2, 2 and HEPES, 5 (pH 7.5), supplemented with 50 mg/L gentamycin sulfate and 90 mg/L theophylline. After ex vivo translation, the ion channels were correctly inserted in the cell membrane of the oocytes.
# (§2) Two-electrode voltage-clamp recordings were performed at room temperature (18–22 °C) using a Geneclamp 500 amplifier (Molecular Devices, San Jose, CA, USA) and pClamp data acquisition (Axon Instruments, Union City, CA, USA) and using an integrated digital TEVC amplifier controlled by HiClamp, an automated Voltage-Clamp Screening System (Multi Channel Systems MCS GmbH, Reutlingen, Germany). Whole-cell currents from oocytes were recorded 1–4 days after injection. The bath solution composition was ND96 (in mM): NaCl, 96; KCl, 2; CaCl2, 1.8; MgCl2, 2 and HEPES, 5 (pH 7.5). Voltage and current electrodes were filled with a 3 M solution of KCl in H2O. Resistances of both electrodes were kept between 0.5 and 1.5 MΩ. The elicited Kv1.x, Kv2.1, Kv4.2 and Kv10.1 currents were filtered at 0.5 kHz and sampled at 2 kHz using a four-pole low-pass Bessel filter. Leak subtraction was performed using a P/4 protocol.
# (§3) For the electrophysiological analysis of the compounds, a number of protocols were applied from a holding potential of −90 mV. Currents for Kv1.x, Kv2.1, Kv4.2 and Kv10.1 were evoked by 1 s depolarizing pulses either to 0 mV or to a range of voltage steps between −80 mV and +40 mV. For the analysis of the data, only the inhibition at the 0 mV step was used. The concentration dependency of all compounds was assessed by measuring the current inhibition in the presence of increasing compound concentrations. […] From this stock solution, adequate dilutions with a maximum of 0.5% DMSO were made for testing.
# (§4) All electrophysiological data (Figure S1) are presented as means ± S.E.M of n ≥ three independent experiments unless otherwise indicated. All data were analyzed using pClamp Clampfit 10.4 (Molecular Devices, Downingtown, PA, USA), OriginPro 9 (Originlab, Northampton, MA, USA), GraphPad Prism 8 software (GraphPad Software, Inc., San Diego, CA, USA) and DataMining (Multi Channel Systems MCS GmbH, Reutlingen, Germany). The Dunnett test and one-way ANOVA were performed to calculate the significance of the induced inhibition compared to the control.
# KV1.6 = KV1.6 (Homo sapiens, UniProt P17658); test: Selectivity, HiClamp Xenopus laevis heterologous expression system, KV1.6; assay type: cell-based; settings: for IC50: HiClamp, oocytes, NA = no significant inhibition, no IC50 determined; for Effect on KV1.6 channel: at a concentration of the compound's IC50 value for KV1.3
# Experimental: as §1, §2, §3, §4
# KV1.3 = KV1.3 (Homo sapiens, UniProt P22001); test: KV1.3 inhibition, manual whole-cell patch-clamp on Ltk^− cells; assay type: cell-based; set-up: expressed in transfected cells; host or cells: Ltk- cells (mouse fibroblasts), transient transfection with lipofectamine 2000
# Panc-1 tumor spheroids = test: Apoptosis (caspase 3/7 activity) in Panc-1 tumor spheroids; assay type: cell-based; settings: with 8.9 µM cycloheximide
# Experimental: (§5) Cell lines Panc-1 (ACC 783) and Colo-357 (CVCL_0221) were obtained through the validated collection of the pHioniC consortium (MSC-ITN 813834). Both cell lines were grown in RPMI1640, supplemented with 1 mM sodium pyruvate and 1% Glutamax (all Gibco Thermo-Fisher, Waltham, MA USA) 10%FBS (BioChrom, Berlin, Germany), at 5% CO2 and 37 °C in a humidified atmosphere.
# Spheroids were cultured in round bottom ultra-low attachment 96-well plates (Corning). The optimal seeding densities were empirically determined (8000 cells/well for Colo-357 or 10,000 cells/well for Panc-1 spheroids. The cells were suspended in 2% Matrigel (Corning), centrifuged at 1000× g for 10 min and the spheroids were allowed to form in the incubator. Once the spheroids were formed, the treatments indicated together with 8.9 µM cycloheximide (as apoptosis sensitizer) were added and apoptosis was determined by live imaging in the Incucyte system in real time for approximately 60 h using Caspase-3/7 green reagent (Sartorius) as a reporter of apoptosis, which crosses the cell membrane and is cleaved by the activated Caspase-3/7, resulting in the fluorescent staining of nuclear DNA. Apoptosis on Panc-1 tumor spheroids is presented as integrated green fluorescence in the whole spheroid.
# Colo-357 cells = test: Cell proliferation (culture confluency, IncuCyte) in 2D culture, Colo-357; assay type: cell-based; settings: 100 µM, confluence by live cell imaging
# Experimental: as §5
# For cell proliferation assays, cells were seeded at a density of 10,000 cells/well in 96-well flat bottom culture plates (Corning, Kaiseslautern, Germany) and proliferation was measured through culture confluency using an IncuCyte device (Sartorius, Göttingen, Germany). Every hour, two phase contrast images per well were acquired, and a confluency mask was generated by training the analysis algorithm using representative images. Every image was then analyzed using the obtained parameters to determine culture confluency. Treatments were then added when cells reached a confluency of ~30% (Panc-1) or ~55% (Colo-357), and proliferation was determined for the following 60 h. Proliferation is reported as confluency increase with respect to the start of the treatment.
# KV1.2 = KV1.2 (Homo sapiens, UniProt P16389); test: Selectivity, HiClamp Xenopus laevis heterologous expression system, KV1.2; assay type: cell-based; settings: for IC50: HiClamp, oocytes, NA = no significant inhibition, no IC50 determined; for Effect on KV1.2 channel: at a concentration of the compound's IC50 value for KV1.3
# Experimental: as §1, §2, §3, §4
# KV1.1 = KV1.1 (Rattus norvegicus, UniProt P10499); test: Selectivity, HiClamp Xenopus laevis heterologous expression system, KV1.1; assay type: cell-based; settings: at a concentration of the compound's IC50 value for KV1.3
# Experimental: as §1, §2, §3, §4
# [1] = Turbidimetric solubility assay; assay type: physicochemical; settings: for solubility: pH 7.4, aqueous buffer, kinetic from dmso stock, phosphate-buffered saline, final 1% DMSO, read-out: Concentration at which compound was soluble (turbidimetric solubility test)
# Experimental: For the phosphate-buffered saline, we dissolved 2.38 g of disodium hydrogen phosphate dodecahydrate, 0.19 g of potassium dihydrogen phosphate, and 8.0 g of sodium chloride in water and diluted it to 1000 mL with the same solvent. Then we adjusted the pH to 7.4. The stock DMSO solutions of the compounds were prepared at concentrations of 50 mM, 20 mM, 10 mM, and 1 mM. The final solutions (500 µM, 200 µM, 100 µM, and 10 µM) were prepared by adding 2 µL of the stock DMSO solution to 198 µL of phosphate-buffered saline. The absorbance (area scan) was measured at 620 nm for sample volume of 200 µL and the appearance of the solutions was checked by visual inspection.
# [2] = 10 µM in PBS with 1 % final DMSO
# [3] = 100 µM in PBS with 1 % final DMSO
# [4] = 200 µM in PBS with 1 % final DMSO
# [5] = 500 µM in PBS with 1 % final DMSO
# Chain of KV1.1 (P10499 whole entry): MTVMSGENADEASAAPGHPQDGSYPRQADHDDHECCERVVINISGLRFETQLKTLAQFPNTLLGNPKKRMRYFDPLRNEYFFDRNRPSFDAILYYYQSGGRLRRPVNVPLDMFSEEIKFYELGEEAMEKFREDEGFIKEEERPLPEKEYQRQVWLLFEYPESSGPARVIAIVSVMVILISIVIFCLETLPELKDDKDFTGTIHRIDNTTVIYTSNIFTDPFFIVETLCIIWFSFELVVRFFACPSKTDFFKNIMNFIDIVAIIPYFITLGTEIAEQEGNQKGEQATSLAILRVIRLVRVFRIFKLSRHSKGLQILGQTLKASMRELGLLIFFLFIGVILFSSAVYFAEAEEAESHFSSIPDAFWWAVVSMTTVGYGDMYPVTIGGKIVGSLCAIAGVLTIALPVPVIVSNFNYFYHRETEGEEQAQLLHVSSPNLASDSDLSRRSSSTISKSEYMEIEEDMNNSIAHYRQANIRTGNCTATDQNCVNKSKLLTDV
# Chain of KV1.3 (P22001 whole entry): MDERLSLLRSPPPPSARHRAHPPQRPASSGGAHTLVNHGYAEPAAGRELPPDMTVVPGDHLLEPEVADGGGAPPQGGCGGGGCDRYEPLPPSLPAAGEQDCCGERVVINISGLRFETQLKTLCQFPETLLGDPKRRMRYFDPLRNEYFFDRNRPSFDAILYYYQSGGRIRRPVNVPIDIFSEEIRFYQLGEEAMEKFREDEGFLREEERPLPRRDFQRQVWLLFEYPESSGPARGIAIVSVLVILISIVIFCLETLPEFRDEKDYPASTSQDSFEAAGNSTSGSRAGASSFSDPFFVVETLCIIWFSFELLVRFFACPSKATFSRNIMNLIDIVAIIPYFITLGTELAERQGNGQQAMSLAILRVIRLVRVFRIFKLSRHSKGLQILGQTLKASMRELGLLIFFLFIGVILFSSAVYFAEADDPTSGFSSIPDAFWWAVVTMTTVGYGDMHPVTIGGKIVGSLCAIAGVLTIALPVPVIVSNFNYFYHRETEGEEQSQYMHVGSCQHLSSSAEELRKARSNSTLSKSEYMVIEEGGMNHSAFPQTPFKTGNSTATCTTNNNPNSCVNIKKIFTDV
# Chain of KV1.5 (P22460 whole entry): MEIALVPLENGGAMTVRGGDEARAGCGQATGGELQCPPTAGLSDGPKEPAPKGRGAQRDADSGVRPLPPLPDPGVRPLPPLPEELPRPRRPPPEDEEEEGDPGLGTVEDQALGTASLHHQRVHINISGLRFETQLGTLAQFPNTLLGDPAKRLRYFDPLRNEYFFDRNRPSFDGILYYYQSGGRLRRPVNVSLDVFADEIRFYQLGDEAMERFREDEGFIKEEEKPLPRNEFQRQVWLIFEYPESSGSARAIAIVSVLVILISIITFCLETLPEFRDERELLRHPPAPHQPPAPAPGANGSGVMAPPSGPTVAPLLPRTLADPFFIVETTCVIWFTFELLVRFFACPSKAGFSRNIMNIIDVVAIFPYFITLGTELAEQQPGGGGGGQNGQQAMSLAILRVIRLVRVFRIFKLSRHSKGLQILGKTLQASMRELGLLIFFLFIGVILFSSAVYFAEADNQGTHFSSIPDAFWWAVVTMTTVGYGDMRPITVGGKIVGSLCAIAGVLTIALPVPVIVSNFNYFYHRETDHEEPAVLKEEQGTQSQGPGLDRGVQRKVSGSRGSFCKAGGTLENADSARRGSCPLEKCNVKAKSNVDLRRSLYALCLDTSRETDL
# Chain of KV1.6 (P17658 whole entry): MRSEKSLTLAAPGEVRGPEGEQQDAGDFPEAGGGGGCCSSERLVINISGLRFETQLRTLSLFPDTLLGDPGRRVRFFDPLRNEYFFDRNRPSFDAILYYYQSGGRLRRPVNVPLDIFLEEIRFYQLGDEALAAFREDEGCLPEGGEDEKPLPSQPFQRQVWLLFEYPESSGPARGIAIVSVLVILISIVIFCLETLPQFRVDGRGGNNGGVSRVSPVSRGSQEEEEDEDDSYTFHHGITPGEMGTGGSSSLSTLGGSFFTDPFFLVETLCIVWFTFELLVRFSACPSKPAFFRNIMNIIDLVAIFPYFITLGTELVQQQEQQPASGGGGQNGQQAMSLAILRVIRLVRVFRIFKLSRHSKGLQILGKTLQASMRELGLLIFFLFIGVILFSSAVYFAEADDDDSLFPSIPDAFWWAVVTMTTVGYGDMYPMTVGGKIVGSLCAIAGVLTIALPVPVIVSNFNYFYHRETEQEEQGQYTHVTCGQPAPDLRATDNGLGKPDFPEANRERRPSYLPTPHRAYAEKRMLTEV
# Chain of KV1.2 (P16389 whole entry): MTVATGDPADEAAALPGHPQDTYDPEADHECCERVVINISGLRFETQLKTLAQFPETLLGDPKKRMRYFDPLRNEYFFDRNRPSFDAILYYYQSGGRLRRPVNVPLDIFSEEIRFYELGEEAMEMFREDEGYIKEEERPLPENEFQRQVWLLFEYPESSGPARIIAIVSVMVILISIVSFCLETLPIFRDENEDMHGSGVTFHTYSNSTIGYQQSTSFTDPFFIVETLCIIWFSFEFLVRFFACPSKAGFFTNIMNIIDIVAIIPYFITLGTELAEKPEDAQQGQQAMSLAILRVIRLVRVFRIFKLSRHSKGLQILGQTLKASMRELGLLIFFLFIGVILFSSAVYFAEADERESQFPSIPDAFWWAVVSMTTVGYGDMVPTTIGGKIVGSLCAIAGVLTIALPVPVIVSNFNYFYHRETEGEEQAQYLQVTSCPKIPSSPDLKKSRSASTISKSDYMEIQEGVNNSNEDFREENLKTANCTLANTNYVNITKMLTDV
IC50 (KV1.5) [nM],Effect on KV1.5 channel (KV1.5),IC50 (KV1.6) [nM],Effect on KV1.6 channel (KV1.6),IC50 (KV1.3) [nM],IC50 (KV1.2) [nM],Effect on KV1.2 channel (KV1.2),Effect on KV1.1 channel (KV1.1),"absorbance at 620 nm [1, 2]","absorbance at 620 nm [1, 3]","absorbance at 620 nm [1, 4]","absorbance at 620 nm [1, 5]",solubility [1] [µM],SMILES,Induction of apoptosis in Panc-1 spheroids (Panc-1 tumor spheroids),Growth of Colo-357 cells (Colo-357 cells)
2070 ± 130,significant effects,430 ± 20,significant effects,1330 ± 200,4000 ± 200,significant effects,significant effects,–,–,–,–,–,COc1ccccc1C(=O)NCC1(c2cccs2)CCOC1 (stereo not shown) [Compound 14],did not induce detectable levels of apoptosis,not significantly affected; also recorded: unaffected
8640 ± 30,significantly inhibited,4330 ± 1210,significantly inhibited,1350 ± 40,2340 ± 260,significantly inhibited,significantly inhibited,0,"0,003","0,005","0,077",≥ 200,COc1ccc(F)cc1C(=O)NCC1(c2ccccc2)CCOCC1 [Compound 37],did not induce detectable levels of apoptosis,not significantly affected; also recorded: unaffected
4330 ± 10,significant effects,830 ± 10,significant effects,1020 ± 70,2760 ± 560,significant effects,significant effects,"0,01","0,002","0,003","0,011",≥ 500,COc1ccccc1C(=O)NCC1(c2cccs2)CCOCC1 [Compound 43],did not induce detectable levels of apoptosis,not significantly affected; also recorded: unaffected
–,no significant effects,–,no significant effects,950 ± 240,–,no significant effects,no significant effects,0,"0,003","0,003","0,014",≥ 500,COc1ccccc1C(=O)NCC1(c2ccsc2)CCOCC1 [Compound 44],did not induce detectable levels of apoptosis,not significantly affected; also recorded: unaffected
